≈ marks a conversion by molar mass, not a printed value.
Key:
[1] = test system: mitotic spindles (β-tubulin) in CEM cells; experiment: Immunofluorescent detection of mitotic spindles; assay type: cell-based, human; conditions: for Antimicrotubule: CEM cells, 0.025 μg/ml, immunofluorescent staining
Method: […] After incubation, cells were washed twice in PBS. Cell pellets were resuspended in drug-free medium and incubated for 48 hr at 37° C. Cell viability, morphology, mitotic spindles, cell cycle distribution and apoptosis were determined 24 hr and 48 hr post pulse exposure.
CEM cells incubated in the absence or presence of 3-BAABU were collected and centrifuged in a Cytospin at 700 g for 5 min. The slides were air dried and fixed with methanol for 20 min at −20° C. The slides were incubated in PBS containing. 1% BSA at 37° C. for 30 min. After washing with PBS for 3 min, cells on the slides were covered with 30 μl anti-human β-tubulin monoclonal antibody (4 μg/ml) (Accurate Antibody, Westbury, N.Y.) and placed in a humid chamber at room temperature for 60 min. The slides were washed three times for 3 min each in PBS followed by staining with 10 μl FITC labeled goat anti-mouse antibody (Coulter, Hialeah, Fla.) in a humid chamber at room temperature for 60 min. After washing in, PBS, the immunofluorescent stained cells were visualized under a fluorescence microscope (Model MC 63, Zeiss, Germany).

[2] = test system: EL4 murine leukemia lymphoma; experiment: Cytotoxicity, ID50 and ID90 by trypan blue exclusion; assay type: cell-based; conditions: 48 hr
Method: (§1) All cell lines, with the exception of human SP cells, a biphenotypic leukemic cell line (reference 10 & 11), were obtained from the American Tissue Culture Collection (Rockville, Md.) and were cultured under conditions recommended by the vendor. EL4 murine leukemia lymphoma (as suspension) and B16 mouse melanoma (as monolayer) cell lines were cultivated in RPMI-1640 medium supplemented with 10% fetal bovine serum (FBS), penicillin (250 μ/ml) and streptomycin (250 μml); MOT, a non-tumor proliferative myocardial cell line from rat and NIH 3T3, a non-malignant and proliferative fibroblast cell line from mouse were both cultured as monolayers in Dulbecco's Modified Eagle's Medium with 10% heat inactivated calf serum. CEM, a human acute T-cell leukemic cell line, was cultured as a suspension in Iscove's Dulbecco's Medium with 10% heat inactivated fetal calf serum and antibiotics. […]
(§2) Cells in suspension culture were seeded into 96-well microplates (Falcon, Oxnard, Calif.) at 10^5 cell per well, followed, by treatment with 0-10 μg/ml of the candidate compounds for 48 hr at 37° C. with total volume of 250 μl per well. Cell viability was assessed by trypan blue exclusion.
(§3) The ID50 and ID90 was determined in duplicate in every set of experiments, and each experiment was repeated 3 times under identical conditions. […]

SP cells [3] = experiment: as above; assay type: cell-based; conditions: Human MDS, 48 hr
Method: as §1, §2, §3

B16 mouse melanoma [4] = experiment: Cytotoxicity, ID50 and ID90 (monolayer culture); assay type: cell-based; conditions: B16, Murine melanoma, 48 hr
Method: as §1, with “antibiotics. PC-3 cells, a human prostate cancer line, was cultured as monolayers in RPMI-1640 with 10% FBS. SP cells were cultured in Minimum Eagle's Medium plus 10% FBS. Human peripheral blood lymphocytes (PBL) were isolated from whole blood of healthy individuals by Ficoll-Hypaque gradient method.” for “antibiotics.”
as §3

PC-3 cells [5] = experiment: Cytotoxicity, ID50 and ID90 (monolayer culture); assay type: cell-based; conditions: PC-3, Human Prostate Cancer, 48 hr
Method: as §1, with “antibiotics. PC-3 cells, a human prostate cancer line, was cultured as monolayers in RPMI-1640 with 10% FBS. SP cells were cultured in Minimum Eagle's Medium plus 10% FBS. Human peripheral blood lymphocytes (PBL) were isolated from whole blood of healthy individuals by Ficoll-Hypaque gradient method.” for “antibiotics.”
as §3

PC-3 cells [6] = experiment: Block of mitosis, morphology by microscopy; assay type: cell-based, human; parameters: key to Block of Mitosis: +Block of mitosis was observed; −no mitotic blocking
Method: (§4) All cell lines, with the exception of human SP cells, a biphenotypic leukemic cell line (reference 10 & 11), were obtained from the American Tissue Culture Collection (Rockville, Md.) and were cultured under conditions recommended by the vendor. EL4 murine leukemia lymphoma (as suspension) and B16 mouse melanoma (as monolayer) cell lines were cultivated in RPMI-1640 medium supplemented with 10% fetal bovine serum (FBS), penicillin (250 μ/ml) and streptomycin (250 μml); MOT, a non-tumor proliferative myocardial cell line from rat and NIH 3T3, a non-malignant and proliferative fibroblast cell line from mouse were both cultured as monolayers in Dulbecco's Modified Eagle's Medium with 10% heat inactivated calf serum. CEM, a human acute T-cell leukemic cell line, was cultured as a suspension in Iscove's Dulbecco's Medium with 10% heat inactivated fetal calf serum and antibiotics. PC-3 cells, a human prostate cancer line, was cultured as monolayers in RPMI-1640 with 10% FBS. SP cells were cultured in Minimum Eagle's Medium plus 10% FBS. Human peripheral blood lymphocytes (PBL) were isolated from whole blood of healthy individuals by Ficoll-Hypaque gradient method. Isolated PBL were maintained in RPMI-1640 in the presence of 10% homologous plasma at 37° C. All cells were incubated at 37° C. in 5% C02. Cells in exponential growth were used.
(§5) Cell samples on slides were prepared by a Cytospin centrifuge (Shandon Southern Products Ltd, England) at 700 g for 5 min. The slides were air dried, fixed in methanol and stained with Giemsa (Harleco, N.J.) at room temperature for 15 min. Alterations of nuclei, membranes and morphological features were observed by light microscopy. Cells in mitotic phase were recognized by the appearance of their chromosomes dispersed in the cytoplasm, and by the disappearance of nuclear membrane. Apoptotic-cells were identified using previously defined criteria, i.e., shrinkage in cell size, chromatin condensation and fragmentation of the nucleus into discrete masses (references 2 & 3). Necrotic cells were differentiated from apoptotic cells by observing swollen cytoplasm and the disappearance of cell membrane prior to the destruction of the nucleus.

SP cells [7] = experiment: Block of mitosis, morphology by microscopy; assay type: cell-based, human; parameters: key to Block of Mitosis: +Block of mitosis was observed; −no mitotic blocking
Method: as §4, §5

B16 mouse melanoma [8] = experiment: Block of mitosis, morphology by microscopy; assay type: cell-based; parameters: key to Block of Mitosis: +Block of mitosis was observed; −no mitotic blocking
Method: as §4, §5

[9] = test system: Human peripheral blood lymphocytes (PBL); experiment: Block of mitosis, morphology by microscopy; assay type: cell-based; parameters: key to Block of Mitosis: +Block of mitosis was observed; −no mitotic blocking
Method: as §4, §5

MOT myocardial cell line = experiment: Block of mitosis, morphology by microscopy; assay type: cell-based, rat; parameters: key to Block of Mitosis: +Block of mitosis was observed; −no mitotic blocking
Method: as §4, with “used. […]” for “used.”

[10] = test system: NIH 3T3 fibroblast cell line; experiment: Block of mitosis, morphology by microscopy; assay type: cell-based, mouse; parameters: key to Block of Mitosis: +Block of mitosis was observed; −no mitotic blocking
Method: as §4, with “used. […]” for “used.”

SMILES: NC(=O)NC(=O)c1cccc(NC(=O)CBr)c1 [Compound 8, 3-Bromoacetoamido, benzoylurea]
- Antimicrotubule ([1]; Continuous Exposure (24 hr; 48 hr in footnote)): ++++ (++++: >75% cells were affected)
- Antimicrotubule ([1]; Pulse Exposure (1 hr)): ++++ (++++: >75% cells were affected)
- formation of mitotic spindles, immunofluorescent staining for β-tubulin ([1]; mitotic CEM cells arrested by the compound): none of them showed positive staining for mitotic spindles or astral microtubules
- ID90 [2]: 0.02 ± 0.004 µg/mL (≈ 0.0666 µM)
- ID90 (SP cells [3]): 0.71 ± 0.11 µg/mL (≈ 2.37 µM)
- ID90 (B16 mouse melanoma [4]): 0.76 ± 0.09 µg/mL (≈ 2.53 µM)
- ID90 (PC-3 cells [5]): 0.95 ± 0.17 µg/mL (≈ 3.17 µM)
- Block of Mitosis (PC-3 cells [6]; PC-3, Human Prostate Cancer, 37° C. for 48 hr): +
- morphologic effect (PC-3 cells [6]; PC-3 human prostate cancer cells, 0.1 μg/ml, 24 hr at 37° C.): induced mitotic arrest
- morphologic effect (SP cells [7]; SP human lymphoid leukemic cells, 0.025 μg/ml, 24 hr at 37° C.): induced mitotic arrest
- Block of Mitosis (SP cells [7]; SP, Human MDS, 37° C. for 48 hr, arrest = mitotic cells >50% vs controls): +
- Block of Mitosis (B16 mouse melanoma [8]; B16, Murine melanoma, 37° C. for 48 hr): +
- morphologic effect (B16 mouse melanoma [8]; murine melanoma cells, 0.25 μg/ml, 24 hr at 37° C.): induced mitotic arrest
- Block of Mitosis ([9]; Normal human PBL (non-tumor), 37° C. for 48 hr): −
- morphologic effect ([9]; normal human lymphocytes, 2 μg/ml, 24 hr at 37° C.): no effect
- Block of Mitosis (MOT myocardial cell line; MOT, Rat myocardiac cells (non-tumor), 37° C. for 48 hr): −
- morphologic effect (MOT myocardial cell line; rat myocardial cells, 1.0 μg/ml, 24 hr at 37° C.): no effect
- Block of Mitosis ([10]; 3T3, Murine fibroblast (non-tumor), 37° C. for 48 hr): −
- morphologic effect ([10]; murine fibroblast cells, 1.0 μg/ml, 24 hr at 37° C.): no effect
